Assays:
dog [1] = details: Chronic toxicity; beagle; Oral; Feed; dose end: 52 week; group: systemic; systemic / in life observation / body weight / body weight gain + systemic / in life observation / clinical signs / abnormal gait + systemic…
rat [2] = details: Multigenerational reproductive toxicity study, sprague dawley, Oral, Feed, dose end: 2 generation
mouse [3] = details: Carcinogenicity; other; Oral; Feed; dose end: 18 month; group: systemic; systemic / clinical chemistry / alanine aminotransferase (alt/sgpt) / alanine aminotransferase (alt/sgpt) + systemic / clinical chemistry / …
rat [4] = details: Prenatal developmental toxicity study, other, Oral, Gavage/Intubation, dose end: 15 GD
rat [5] = details: Combined chronic toxicity/carcinogenicity, other, Oral, Feed, dose end: 24 month, group: systemic
dog [6] = details: Subchronic oral toxicity in nonrodent, beagle, Feed, dose end: 90 day, group: systemic
rat [7] = details: Subchronic oral toxicity in rodents, other, Feed, dose end: 3 month, group: systemic
rabbit [8] = details: Prenatal developmental toxicity study, new zealand white, Oral, Gavage/Intubation, dose end: 19 GD
rat [9] = details: Subchronic oral toxicity in rodents, sprague dawley, Feed, dose end: 90 day, group: systemic, systemic / hematology / platelet / platelet + systemic / urinalysis / ketones / ketones
dog [10] = details: Chronic toxicity, beagle, Oral, Feed, dose end: 52 week, group: systemic
rabbit [11] = details: Prenatal developmental toxicity study, himalayan, Oral, Gavage/Intubation, dose end: 19 GD
mouse [12] = details: Subchronic oral toxicity in rodents, b6c3f1, Feed, dose end: 90 day, group: systemic
mouse [13] = details: Carcinogenicity, b6c3f1, Oral, Feed, dose end: 78 week, group: systemic
[14] = group: offspring, developmental / offspring survival late / lactation index / lactation index + systemic / in life observation / body weight / offspring (pup…
[15] = group: parental, systemic / in life observation / body weight / body weight gain + systemic / in life observation / food consumption / food consumption + …
[16] = group: developmental, developmental / developmental malformation / bone / incomplete ossification + developmental / developmental malformation / bone / irregular …
[17] = group: maternal, systemic / in life observation / body weight / body weight gain
[18] = systemic / pathology microscopic / kidney / pigmentation + systemic / pathology microscopic / liver / hypertrophy
[19] = systemic / pathology microscopic / kidney / pigmentation + systemic / pathology microscopic / liver / hypertrophy + systemic / pathology …
[20] = systemic / in life observation / clinical signs / skin ulceration
[21] = systemic / in life observation / clinical signs / skin ulceration + systemic / clinical chemistry / alkaline phosphatase (alp/alk) / …
[22] = systemic / clinical chemistry / alkaline phosphatase (alp/alk) / alkaline phosphatase (alp/alk) + systemic / organ weight / liver / absolute…
[23] = group: developmental, systemic / in life observation / body weight / fetal weight
[24] = group: maternal, reproductive / reproductive performance / aborted / aborted + reproductive / reproductive performance / postimplantation loss / …
[25] = systemic / organ weight / liver / relative to body weight
[26] = systemic / organ weight / liver / relative to body weight + systemic / clinical chemistry / alanine aminotransferase (alt/sgpt) / alanine …
[27] = group: maternal, systemic / in life observation / body weight / body weight gain + systemic / in life observation / food consumption / food consumption
[28] = group: maternal, systemic / in life observation / body weight / body weight gain + systemic / in life observation / food consumption / food consumption + …
[29] = systemic / in life observation / body weight / body weight gain
[30] = systemic / in life observation / body weight / body weight gain + systemic / organ weight / kidney / absolute
[31] = systemic / in life observation / body weight / body weight + systemic / organ weight / brain / nos + systemic / organ weight / kidney / nos

In the case of `C#CCOC(=O)[C@@H](C)Oc1ccc(Oc2ncc(Cl)cc2F)cc1` [Clodinafop-propargyl mixt.], the LEL (dog [1]) is reported as 15.2 mg/kg/day, the LOAEL (dog [1]) is reported as 15.2 mg/kg/day and the NEL (dog [1]) is reported as 3.38 mg/kg/day. The NOAEL (dog [1]) was 3.38 mg/kg/day, the LEL (rat [2]; [14]) was 31.7 mg/kg/day and the LOAEL (rat [2]; [14]) was 31.7 mg/kg/day. The NEL (rat [2]; [14]) was 3.21 mg/kg/day, the NOAEL (rat [2]; [14]) was 3.21 mg/kg/day and the LEL (rat [2]; [15]) was 31.7 mg/kg/day. The LOAEL (rat [2]; [15]) was 31.7 mg/kg/day, the NEL (rat [2]; [15]) was 3.21 mg/kg/day and the NOAEL (rat [2]; [15]) was 3.21 mg/kg/day. It also gave an LEL (mouse [3]) of 11 mg/kg/day, an LOAEL (mouse [3]) of 11 mg/kg/day and an NEL (mouse [3]) of 1.1 mg/kg/day. For the same compound, the NOAEL (mouse [3]) was 1.1 mg/kg/day, the LEL (rat [4]; [16]) was 40 mg/kg/day and the LOAEL (rat [4]; [16]) was 40 mg/kg/day. It also gave an NEL (rat [4]; [16]) of 5 mg/kg/day, an NOAEL (rat [4]; [16]) of 5 mg/kg/day and an LEL (rat [4]; [17]) of 5 mg/kg/day. For the same compound, the LOAEL (rat [4]; [17]) was > 160 mg/kg/day, the NEL (rat [4]; [17]) was < 5 mg/kg/day and the NOAEL (rat [4]; [17]) was ≥ 160 mg/kg/day. It also gave an LEL (rat [5]; [18]) of 0.324 mg/kg/day, an LOAEL (rat [5]; [18]) of 0.324 mg/kg/day and an NEL (rat [5]; [19]) of 0.031 mg/kg/day. The NOAEL (rat [5]; [19]) was 0.031 mg/kg/day, the LEL (dog [6]; [20]) was 1.73 mg/kg/day and the LOAEL (dog [6]; [20]) was 1.73 mg/kg/day. It also gave an NEL (dog [6]; [21]) of 0.346 mg/kg/day, an NOAEL (dog [6]; [21]) of 0.346 mg/kg/day and an LEL (rat [7]; [22]) of 8.24 mg/kg/day. It also gave an LOAEL (rat [7]; [22]) of 8.24 mg/kg/day, an NOAEL (rat [7]; [22]) of 0.92 mg/kg/day and an NEL (rat [7]; systemic / hematology / erythrocyte (rbc) count differential / erythrocyte (rbc) + systemic / hematology / hemoglobin (hgb) / hemoglobin (…) of 0.92 mg/kg/day.

In the case of `COc1cc(OC)nc(NC(=O)NS(=O)(=O)c2ncccc2C(=O)N(C)C)n1` [Nicosulfuron], the LEL (rabbit [8]; [23]) is reported as 100 mg/kg/day, the LOAEL (rabbit [8]; [23]) is reported as 1000 mg/kg/day and the NEL (rabbit [8]; [23]) is reported as < 100 mg/kg/day. For the same compound, the NOAEL (rabbit [8]; [23]) was 500 mg/kg/day, the LOAEL (rabbit [8]; [24]) was 500 mg/kg/day and the NOAEL (rabbit [8]; [24]) was 100 mg/kg/day. The LEL (rabbit [8]; [17]) was 100 mg/kg/day, the NEL (rabbit [8]; [17]) was < 100 mg/kg/day and the LEL (rat [9]) was 15 mg/kg/day. The LOAEL (rat [9]) was 15 mg/kg/day, the NEL (rat [9]) was < 15 mg/kg/day and the NOAEL (rat [9]) was < 15 mg/kg/day.

In the case of `O=C(O)c1c(Cl)ccc2cc(Cl)cnc12` [Quinclorac], the LEL (dog [10]; [25]) is reported as 34.5 mg/kg/day, the NEL (dog [10]; [25]) is reported as < 34.5 mg/kg/day and the LOAEL (dog [10]; [26]) is reported as 469 mg/kg/day. The NOAEL (dog [10]; [26]) was 140 mg/kg/day, the LEL (rabbit [11]; [23]) was 600 mg/kg/day and the LOAEL (rabbit [11]; [23]) was 600 mg/kg/day. It also gave an NEL (rabbit [11]; [23]) of 200 mg/kg/day, an NOAEL (rabbit [11]; [23]) of 200 mg/kg/day and an LEL (rabbit [11]; [27]) of 200 mg/kg/day. For the same compound, the LOAEL (rabbit [11]; [27]) was 200 mg/kg/day, the NEL (rabbit [11]; [28]) was 70 mg/kg/day and the NOAEL (rabbit [11]; [28]) was 70 mg/kg/day. The LOAEL (mouse [12]; [29]) was 1000 mg/kg/day, the NOAEL (mouse [12]; [29]) was < 1000 mg/kg/day and the LEL (mouse [12]; [30]) was 1000 mg/kg/day. The NEL (mouse [12]; [30]) was < 1000 mg/kg/day, the LOAEL (mouse [13]; systemic / in life observation / body weight / body weight) was 150 mg/kg/day and the NEL (mouse [13]; [31]) was 37.5 mg/kg/day. For the same compound, the NOAEL (mouse [13]; [31]) was 37.5 mg/kg/day and the LEL (mouse [13]; systemic / in life observation / body weight / body weight + systemic / organ weight / kidney / nos) was 150 mg/kg/day.

— EPA's ToxRefDB 2
